Reference: article PMC9848269, “Investigation of novel alkyl/benzyl (4-sulphamoylphenyl)carbamimidothioates as carbonic anhydrase inhibitors” (Journal of Enzyme Inhibition and Medicinal Chemistry, 2023)
Where two headings read alike, the source gives them in different places.

What was measured:
[1] = biological target: T1, hCA XIII (Homo sapiens, UniProt Q8N1Q1); assay: stopped-flow CO2 hydration; format: biochemical
T1 construct: gene CA13; recombinant, obtained in-house; cytosolic
Source text: stopped-flow CO2 hydration on hCA XIII

[2] = biological target: T2, StCA2 (Salmonella enterica, UniProt O30898); assay: stopped-flow CO2 hydration; format: biochemical; conditions: 20 mM TRIS pH 8.4, 20 mM Na2SO4, CO2 1.7-17 mM; 6 h preincubation at room temperature
T2 construct: gene mig-5; recombinant, obtained in-house; beta-class CA
T2 sequence (O30898 41-246): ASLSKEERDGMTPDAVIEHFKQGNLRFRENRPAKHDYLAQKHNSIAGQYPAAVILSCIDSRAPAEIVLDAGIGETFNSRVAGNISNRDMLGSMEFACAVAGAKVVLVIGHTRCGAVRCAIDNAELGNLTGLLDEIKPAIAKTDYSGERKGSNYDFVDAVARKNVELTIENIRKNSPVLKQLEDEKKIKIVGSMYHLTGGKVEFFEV
Source text: stopped-flow CO2 hydration on StCA2

[3] = biological target: T3, hCA I (Homo sapiens, UniProt P00915); assay: biochemical; parameters: stopped-flow CO2 hydration assay, phenol red 557 nm, Hepes pH 7.5, recombinant alpha-CA, 6 h preincubation
T3 construct: gene CA1; recombinant, obtained in-house; cytosolic
T3 sequence (P00915 2-261): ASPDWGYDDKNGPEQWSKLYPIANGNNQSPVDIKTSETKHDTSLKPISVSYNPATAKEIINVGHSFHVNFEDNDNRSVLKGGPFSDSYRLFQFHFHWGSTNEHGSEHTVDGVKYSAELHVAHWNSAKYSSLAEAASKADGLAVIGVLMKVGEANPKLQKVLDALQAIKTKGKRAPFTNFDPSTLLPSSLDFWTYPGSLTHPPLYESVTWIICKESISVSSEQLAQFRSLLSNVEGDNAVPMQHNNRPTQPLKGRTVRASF
Procedure: (§1) An applied photophysics stopped-flow instrument has been used for assaying the CA-catalysed CO2 hydration activity. Phenol red (at a concentration of 0.2 mM) was used as indicator, working at the absorbance maximum of 557 nm, with 20 mM Hepes (pH 7.5) as buffer for α-CAs or 20 mM TRIS (pH 8.4) as buffer for β-CAs, and 20 mM Na2SO4 (for maintaining constant the ionic strength), following the initial rates of the CA-catalysed CO2 hydration reaction for a period of 10 – 100 s. The CO2 concentrations ranged from 1.7 to 17 mM for the determination of the kinetic parameters and inhibition constants. For each inhibitor, at least six traces of the initial 5 – 10% of the reaction have been used for determining the initial velocity. The uncatalysed rates were determined in the same manner and subtracted from the total observed rates. Stock solutions of inhibitor (0.1 mM) were prepared in distilled – deionised water, and dilutions up to 0.01 nM were done thereafter with the assay buffer. Inhibitor and enzyme solutions were preincubated together for 6 h at room temperature prior to assay in order to allow for the formation of the E – I complex. The inhibition constants were obtained by nonlinear least-squares methods using PRISM 3 and the Cheng–Prusoff equation, as reported earlier[12]^,[13]^,[20]^,[21], and represent the mean from at least three different determinations. All CA isoforms were recombinant ones obtained in-house as reported earlier[22]^,[23] and their concentrations in the assay system ranged between 7.6–12.5 nM.

[4] = biological target: T4, hCA II (Homo sapiens, UniProt P00918); assay: biochemical; parameters: stopped-flow CO2 hydration assay, phenol red 557 nm, Hepes pH 7.5, recombinant alpha-CA, 6 h preincubation
T4 construct: gene CA2; recombinant, obtained in-house; cytosolic
Procedure: as §1

[5] = biological target: T5, hCA VII (Homo sapiens, UniProt P43166); assay: biochemical; parameters: stopped-flow CO2 hydration assay, phenol red 557 nm, Hepes pH 7.5, recombinant alpha-CA, 6 h preincubation
T5 construct: gene CA7; recombinant, obtained in-house; cytosolic
T5 sequence (P43166 whole entry): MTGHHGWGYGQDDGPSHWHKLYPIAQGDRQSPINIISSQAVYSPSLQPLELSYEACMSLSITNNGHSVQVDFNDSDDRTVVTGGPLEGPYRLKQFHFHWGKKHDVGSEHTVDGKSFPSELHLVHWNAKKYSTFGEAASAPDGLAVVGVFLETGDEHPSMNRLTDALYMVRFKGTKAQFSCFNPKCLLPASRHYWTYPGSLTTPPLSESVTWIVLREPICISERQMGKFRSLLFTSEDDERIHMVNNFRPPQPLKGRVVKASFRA
Procedure: as §1

[6] = biological target: T1, hCA XIII; assay: biochemical; parameters: stopped-flow CO2 hydration assay, phenol red absorbance at 557 nm, Ki via Cheng-Prusoff
Procedure: as §1, with “nM. Sulphonamides 8a–o incorporating carbamimidothioate moieties have been tested as inhibitors of four human (h) CA isoforms, the cytosolic hCA I, II, VII and XIII, as well as the bacterial β-CAs from Mammaliicoccus (Staphylococcus) sciuri[14] and Salmonella enterica (serovar Typhimurium), StCA1 and StCA2[15]. It should be mentioned that the first bacterial enzyme, MscCA, was originally reported by us as Staphylococcus aureus β-CA, SauCA based on a genomic sequence annotated in the data bases in 2017[14]. […] In 2020, the species was renamed as belonging to a new genus, as Mammaliicoccus sciuri. The hCAs included in the study were the ubiquitous hCA I and II, as well as hCA VII and XIII which are found in fewer tissues compared to hCA I and II, and are involved in several pathologies in the CNS (hCA VII) or reproductive tract (hCA XIII)[17]^,[18].” for “nM.”

[7] = biological target: T3, hCA I; assay: biochemical; parameters: stopped-flow CO2 hydration assay, phenol red absorbance at 557 nm, Ki via Cheng-Prusoff
Procedure: as §1, with “nM. Sulphonamides 8a–o incorporating carbamimidothioate moieties have been tested as inhibitors of four human (h) CA isoforms, the cytosolic hCA I, II, VII and XIII, as well as the bacterial β-CAs from Mammaliicoccus (Staphylococcus) sciuri[14] and Salmonella enterica (serovar Typhimurium), StCA1 and StCA2[15]. It should be mentioned that the first bacterial enzyme, MscCA, was originally reported by us as Staphylococcus aureus β-CA, SauCA based on a genomic sequence annotated in the data bases in 2017[14]. […] In 2020, the species was renamed as belonging to a new genus, as Mammaliicoccus sciuri. The hCAs included in the study were the ubiquitous hCA I and II, as well as hCA VII and XIII which are found in fewer tissues compared to hCA I and II, and are involved in several pathologies in the CNS (hCA VII) or reproductive tract (hCA XIII)[17]^,[18].” for “nM.”

[8] = biological target: T4, hCA II; assay: biochemical; parameters: stopped-flow CO2 hydration assay, phenol red absorbance at 557 nm, Ki via Cheng-Prusoff
Procedure: as §1, with “nM. Sulphonamides 8a–o incorporating carbamimidothioate moieties have been tested as inhibitors of four human (h) CA isoforms, the cytosolic hCA I, II, VII and XIII, as well as the bacterial β-CAs from Mammaliicoccus (Staphylococcus) sciuri[14] and Salmonella enterica (serovar Typhimurium), StCA1 and StCA2[15]. It should be mentioned that the first bacterial enzyme, MscCA, was originally reported by us as Staphylococcus aureus β-CA, SauCA based on a genomic sequence annotated in the data bases in 2017[14]. […] In 2020, the species was renamed as belonging to a new genus, as Mammaliicoccus sciuri. The hCAs included in the study were the ubiquitous hCA I and II, as well as hCA VII and XIII which are found in fewer tissues compared to hCA I and II, and are involved in several pathologies in the CNS (hCA VII) or reproductive tract (hCA XIII)[17]^,[18].” for “nM.”

[9] = biological target: T5, hCA VII; assay: biochemical; parameters: stopped-flow CO2 hydration assay, phenol red absorbance at 557 nm, Ki via Cheng-Prusoff
Procedure: as §1, with “nM. Sulphonamides 8a–o incorporating carbamimidothioate moieties have been tested as inhibitors of four human (h) CA isoforms, the cytosolic hCA I, II, VII and XIII, as well as the bacterial β-CAs from Mammaliicoccus (Staphylococcus) sciuri[14] and Salmonella enterica (serovar Typhimurium), StCA1 and StCA2[15]. It should be mentioned that the first bacterial enzyme, MscCA, was originally reported by us as Staphylococcus aureus β-CA, SauCA based on a genomic sequence annotated in the data bases in 2017[14]. […] In 2020, the species was renamed as belonging to a new genus, as Mammaliicoccus sciuri. The hCAs included in the study were the ubiquitous hCA I and II, as well as hCA VII and XIII which are found in fewer tissues compared to hCA I and II, and are involved in several pathologies in the CNS (hCA VII) or reproductive tract (hCA XIII)[17]^,[18].” for “nM.”

[10] = biological target: T2, StCA2; parameters: stopped-flow CO2 hydration assay, phenol red absorbance at 557 nm, Ki via Cheng-Prusoff; conditions: inhibitor
Procedure: as §1, with “All CA isoforms were recombinant ones obtained in-house as reported earlier[22]^,[23] and their concentrations in the assay system ranged between 7.6–12.5 nM.” left out

[11] = biological target: T6, StCA1; assay: stopped-flow CO2 hydration; format: biochemical, Salmonella enterica subsp. enterica serovar Typhimurium; conditions: 20 mM TRIS pH 8.4, 20 mM Na2SO4, CO2 1.7-17 mM; 6 h preincubation at room temperature
T6 construct: recombinant, obtained in-house; beta-class CA
Source text: stopped-flow CO2 hydration on StCA1

[12] = biological target: T2, StCA2; parameters: stopped-flow CO2 hydration assay, phenol red 557 nm, TRIS pH 8.4, recombinant beta-CA, 6 h preincubation; conditions: inhibitor
Procedure: as §1, with “For each inhibitor, at least six traces of the initial 5 – 10% of the reaction have been used for determining the initial velocity.” left out

[13] = biological target: T1, hCA XIII; assay: biochemical; parameters: stopped-flow CO2 hydration assay, phenol red 557 nm, Hepes pH 7.5, recombinant alpha-CA, 6 h preincubation
Procedure: as §1

[14] = biological target: T4, hCA II; assay: stopped-flow CO2 hydration; format: biochemical
Source text: stopped-flow CO2 hydration on hCA II

[15] = biological target: T5, hCA VII; assay: stopped-flow CO2 hydration; format: biochemical
Source text: stopped-flow CO2 hydration on hCA VII

[16] = biological target: T3, hCA I; assay: stopped-flow CO2 hydration; format: biochemical
Source text: stopped-flow CO2 hydration on hCA I

T1 sequence (Q8N1Q1 whole entry): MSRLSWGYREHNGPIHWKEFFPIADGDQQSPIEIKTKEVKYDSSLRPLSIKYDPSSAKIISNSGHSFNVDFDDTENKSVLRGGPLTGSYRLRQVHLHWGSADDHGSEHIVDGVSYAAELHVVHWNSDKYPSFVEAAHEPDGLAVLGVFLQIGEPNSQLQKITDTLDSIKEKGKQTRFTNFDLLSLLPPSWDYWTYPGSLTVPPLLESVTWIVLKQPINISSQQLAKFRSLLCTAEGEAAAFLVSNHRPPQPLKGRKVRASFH

SMILES: CSC(N)=Nc1ccc(S(N)(=O)=O)cc1 [8a, Methyl (4-sulphamoylphenyl)carbamimidothioate]
- Ki [1]: 97.5 nM
- Ki [2]: 270 nM
- Ki [3]: 90.4 nM
- Ki [4]: 85.8 nM
- Ki [5]: 18.9 nM

SMILES: CCCCSC(N)=Nc1ccc(S(N)(=O)=O)cc1 [8b, Butyl (4-sulphamoylphenyl)carbamimidothioate]
- Ki [2]: 348 nM
- Ki [3]: 76.4 nM
- Ki [4]: 73.6 nM
- Ki [5]: 13.8 nM

SMILES: CCCCCCSC(=N)Nc1ccc(S(N)(=O)=O)cc1 [8c, Hexyl (4-sulphamoylphenyl)carbamimidothioate]
- Ki [6]: 92.2 nM
- Ki [7]: 78.8 nM
- Ki [8]: 2.5 nM
- Ki [9]: 2.3 nM
- Ki [10]: 898 nM

SMILES: CCCCCCCSC(N)=Nc1ccc(S(N)(=O)=O)cc1 [8d, Heptyl (4-sulphamoylphenyl)carbamimidothioate]
- Ki [11]: 71.3 nM
- Ki [12]: 955 nM
- Ki [13]: 926 nM
- Ki [4]: 9.3 nM
- Ki [5]: 2.7 nM

SMILES: C=CCSC(N)=Nc1ccc(S(N)(=O)=O)cc1 [8e, Allyl (4-sulphamoylphenyl)carbamimidothioate]
- Ki [14]: 8.2 nM
- Ki [12]: 4990 nM
- Ki [13]: 814 nM
- Ki [15]: 1.8 nM
- Ki [16]: 38.5 nM

SMILES: C#CCSC(N)=Nc1ccc(S(N)(=O)=O)cc1 [8f, Prop-2-yn-1-yl (4-sulphamoylphenyl)carbamimidothioate]
- Ki [14]: 6.9 nM
- Ki [12]: 7120 nM
- Ki [13]: 352 nM
- Ki [3]: 92.5 nM
- Ki [5]: 5.5 nM

SMILES: NC(=Nc1ccc(S(N)(=O)=O)cc1)SCc1ccccc1 [8g, Benzyl (4-sulphamoylphenyl)carbamimidothioate]
- Ki [2]: 902 nM
- Ki [11]: 52.2 nM
- Ki [13]: 491 nM
- Ki [3]: 68.1 nM
- Ki [5]: 2.4 nM

SMILES: NC(=Nc1ccc(S(N)(=O)=O)cc1)SCc1ccc(Cl)cc1 [8h, 4-Chlorobenzyl (4-sulphamoylphenyl)carbamimidothioate]
- Ki [12]: 6680 nM
- Ki [13]: 892 nM
- Ki [3]: 73.2 nM
- Ki [4]: 34.4 nM
- Ki [5]: 2 nM

SMILES: NC(=Nc1ccc(S(N)(=O)=O)cc1)SCc1ccc(Br)cc1 [8i, 4-Bromobenzyl (4-sulphamoylphenyl)carbamimidothioate]
- Ki [12]: 9700 nM
- Ki [13]: 907 nM
- Ki [4]: 29.9 nM
- Ki [5]: 2.1 nM
- Ki [16]: 60 nM

SMILES: N#Cc1ccc(CSC(N)=Nc2ccc(S(N)(=O)=O)cc2)cc1 [8j, 4-Cyanobenzyl (4-sulphamoylphenyl)carbamimidothioate]
- Ki [11]: 55.7 nM
- Ki [12]: 5190 nM
- Ki [13]: 302 nM
- Ki [3]: 82.8 nM
- Ki [4]: 21.5 nM
- Ki [15]: 1.5 nM

SMILES: NC(=Nc1ccc(S(N)(=O)=O)cc1)SCc1ccc([N+](=O)[O-])cc1 [8k]
- Ki [12]: 6850 nM
- Ki [13]: 856 nM
- Ki [3]: 77.2 nM
- Ki [4]: 9 nM
- Ki [5]: 2.6 nM

SMILES: NC(=Nc1ccc(S(N)(=O)=O)cc1)SCc1ccc(C(F)(F)F)cc1 [8l, 4-(Trifluoromethyl)benzyl (4-sulphamoylphenyl)carbamimidothioate]
- Ki [1]: 80.5 nM
- Ki [12]: 5890 nM
- Ki [3]: 73.5 nM
- Ki [4]: 8.9 nM
- Ki [5]: 2.3 nM

SMILES: NC(=Nc1ccc(S(N)(=O)=O)cc1)SCc1cc(F)cc(F)c1 [8m, 3,5-Difluorobenzyl (4-sulphamoylphenyl)carbamimidothioate]
- Ki [14]: 1.7 nM
- Ki [1]: 75.6 nM
- Ki [12]: 6310 nM
- Ki [3]: 82.2 nM
- Ki [15]: 1.2 nM
